According to patent US20150141411A1, “SUBSTITUTED 3,4-DIHYDRO-2H-PYRIDO[1,2-A]PYRAZINE-1,6-DIONE DERIVATIVES USEFUL FOR THE TREATMENT OF (INTER ALIA) ALZHEIMER'S DISEASE” (Janssen Pharmaceuticals, Inc., priority 2012, published 2015):
Structures can show the parent of a compound that is named as a salt.

Experiments:
[1] = target: T1, γ-secretase (Homo sapiens, UniProt P49768); experiment: Screening for γ-secretase-modulating activity: Aβtotal in supernatant of SKNBE2 cells carrying hAPP 695 wild type (Alphalisa); type: cell-based; conditions: SKNBE2 human neuroblastoma cells carrying hAPP 695 wild type, overnight incubation, Aβtotal in cell supernatant
T1 construct: endogenous in cells; host or cells: SKNBE2 human neuroblastoma cells (carrying hAPP 695 wild type as substrate)
Protocol: (§1) Screening was carried out using SKNBE2 human neuroblastoma cells carrying the hAPP 695—wild type, grown in Dulbecco's Modified Eagle's Medium/Nutrient mixture F-12 (DMEM/NUT-mix F-12) (HAM) provided by Invitrogen (cat no. 10371-029) containing 5% Serum/Fe supplemented with 1% non-essential amino acids, 1-glutamine 2 mM, Hepes 15 mM, penicillin 50 U/ml (units/ml) en streptomycin 50 μg/ml. Cells were grown to near confluency.
(§2) The screening was performed using a modification of the assay as described in Citron et al (1997) Nature Medicine 3: 67. Briefly, cells were plated in a 384-well plate at 10^4 cells/well in Ultraculture (Lonza, BE12-725F) supplemented with 1% glutamine (Invitrogen, 25030-024), 1% non-essential amino acid (NEAA), penicillin 50 U/ml en streptomycin 50 μg/ml in the presence of test compound at different test concentrations. The cell/compound mixture was incubated overnight at 37° C., 5% CO2. The next day the media were assayed by two sandwich immuno-assays, for Aβ42 and Aβ total.
(§3) Aβtotal and Aβ42 concentrations were quantified in the cell supernatant using the Aphalisa technology (Perkin Elmer). Alphalisa is a sandwich assay using biotinylated antibody attached to streptavidin coated donorbeads and antibody conjugated to acceptor beads. In the presence of antigen, the beads come into close proximity. The excitation of the donor beads provokes the release of singlet oxygen molecules that trigger a cascade of energy transfer in the acceptor beads, resulting in light emission. To quantify the amount of Aβ42 in the cell supernatant, monoclonal antibody specific to the C-terminus of Aβ42 (JRF/cAβ42/26) was coupled to the receptor beads and biotinylated antibody specific to the N-terminus of Aβ (JRF/AβN/25) was used to react with the donor beads. To quantify the amount of Aβtotal in the cell supernatant, monoclonal antibody specific to the N-terminus of Aβ (JRF/AβN/25) was coupled to the receptor beads and biotinylated antibody specific to the mid region of Aβ (biotinylated 4G8) was used to react with the donor beads.
(§4) To obtain the values reported in Table 3, the data are calculated as percentage of the maximum amount of amyloid Beta 42 measured in the absence of the test compound. The sigmoidal dose response curves were analyzed using non-linear regression analysis with percentage of the control plotted against the log concentration of the compound. A 4-parameter equation was used to determine the IC50.

[2] = target: T1, γ-secretase; experiment: Screening for γ-secretase-modulating activity: Aβ42 in supernatant of SKNBE2 cells carrying hAPP 695 wild type (Alphalisa); type: cell-based; conditions: SKNBE2 human neuroblastoma cells carrying hAPP 695 wild type, overnight incubation, Aβ42 in cell supernatant
Protocol: as §1, §2, §3, §4

Row | melting point | IC50 [1] | IC50 [2] | Structure (SMILES)
1 | 184.6 °C |  |  | Cc1cn(-c2ccc3n(c2=O)C[C@@H](C)N(Cc2cccc(Cl)c2)C3=O)cn1 (as salt: HCl) [compound 24]
2 | 208.3 °C |  |  | Cc1cn(-c2ccc3n(c2=O)C[C@@H](C)N(Cc2cc(C(F)(F)F)ccc2C)C3=O)cn1 (as salt: HCl) [compound 72]
3 | 235.1 °C |  |  | Cc1cn(-c2ccc3n(c2=O)C[C@@H](C)N(Cc2cc(N4CCC(C)CC4)ccc2Cl)C3=O)cn1 (as salt: HCl) [compound 80]
4 | 160.6 °C |  |  | Cc1cn(-c2ccc3n(c2=O)C[C@@H](C)N(Cc2cc(N4CCC(C(F)(F)F)CC4)ccc2Cl)C3=O)cn1 (as salt: HCl) [compound 81]
5 | 233.6 °C |  |  | Cc1cn(-c2ccc3n(c2=O)C[C@@H](C)N(Cc2cc(N4CCCC4)ccc2Cl)C3=O)cn1 (as salt: HCl) [compound 82]
6 | 185.3 °C |  |  | Cc1cn(-c2ccc3n(c2=O)C[C@@H](C)N(Cc2cc(N4CCCCC4)cc(C(F)(F)F)c2)C3=O)cn1 (as salt: HCl) [compound 86]
7 | 126.9 °C |  |  | Cc1cn(-c2ccc3n(c2=O)C[C@@H](C)N(Cc2ccc(C)c(-n4cccn4)c2)C3=O)cn1 (as salt: HCl) [compound 114]
8 | 116.9 °C |  |  | Cc1cn(-c2ccc3n(c2=O)C[C@@H](C)N(Cc2cc(OC(C)C)nc(C(F)(F)F)c2)C3=O)cn1 (as salt: HCl) [compound 128]
9 | 136 °C |  |  | Cc1cn(-c2ccc3n(c2=O)C[C@@H](C)N(Cc2cc(CC(F)(F)F)cc(C(F)(F)F)c2)C3=O)cn1 (as salt: HCl) [compound 134]
10 | 195.9 °C |  |  | Cc1cn(-c2ccc3n(c2=O)C[C@@H](C)N(Cc2cc(F)cc(OC(F)(F)F)c2)C3=O)cn1 (as salt: HCl) [compound 139]
11 | 115.2 °C |  |  | Cc1cn(-c2ccc3n(c2=O)C[C@@H](C)N(Cc2cc(OC(F)(F)F)cc(C(F)(F)F)c2)C3=O)cn1 (as salt: HCl) [compound 140]
12 | 204.5 °C |  |  | Cc1cn(-c2ccc3n(c2=O)C[C@@H](C)N(Cc2cc(Br)cc(C(F)(F)F)c2)C3=O)cn1 (as salt: HCl) [compound 145]
13 | 103.1 °C |  |  | Cc1cn(-c2ccc3n(c2=O)C[C@@H](C)N(Cc2cc(OC(C)C)c(Cl)cc2F)C3=O)cn1 (as salt: HCl) [compound 163]
14 | 137.5 °C |  |  | Cc1cn(-c2ccc3n(c2=O)C[C@@H](C)N(Cc2cc(OCC(F)(F)F)cc(C(F)(F)F)c2)C3=O)cn1 (as salt: HCl) [compound 166]
15 | 130.6 °C |  |  | Cc1cn(-c2ccc3n(c2=O)C[C@@H](C)N(Cc2ccc(C(F)(F)F)c(N4CCCCC4)c2)C3=O)cn1 (as salt: HCl) [compound 171]
16 | 218 °C |  |  | Cc1cn(-c2ccc3n(c2=O)C[C@@H](C)N(CCc2cccc(Cl)c2Cl)C3=O)cn1 (as salt: HCl) [compound 231]
17 | 190 °C |  |  | Cc1cn(-c2ccc3n(c2=O)C[C@@H](C)N(Cc2cn(C)c4ccc(OC(F)(F)F)cc24)C3=O)cn1 (as salt: HCl) [compound 253]
18 |  | > 10000 nM | 20 nM | Cc1cn(-c2ccc3n(c2=O)C[C@@H](C)N(Cc2csc4ccc(Cl)cc24)C3=O)cn1 [compound 165]
19 |  | > 10000 nM | 1200 nM | Cc1cn(-c2ccc3n(c2=O)CC(C(C)O)N(Cc2cc(C(F)(F)F)cc(C(F)(F)F)c2)C3=O)cn1 (stereo not shown) [compound 167]
20 |  | > 10000 nM | 40 nM | Cc1cn(-c2ccc3n(c2=O)C[C@@H](C)N(Cc2ccc(C(F)(F)F)c(N4CCCCC4)c2)C3=O)cn1 [compound 171]
21 |  | > 10000 nM | 1260 nM | C[C@@H]1Cn2c(ccc(-n3ccnc3)c2=O)C(=O)N1Cc1cc(C(F)(F)F)cc(C(F)(F)F)c1 [compound 173]
22 |  | 5000 nM | 10 nM | Cc1cn(-c2ccc3n(c2=O)C[C@@H](C)N(Cc2cn(C)c4cc(F)c(C5CC5)cc24)C3=O)cn1 [compound 174]
23 |  | > 10000 nM | 1550 nM | Cc1cn(-c2ccc3n(c2=O)C[C@@H](C)N(CCc2ccccc2)C3=O)cn1 [compound 176]
24 |  | > 10000 nM | 40 nM | Cc1cn(-c2ccc3n(c2=O)CC(C)N(Cc2cn(C)c4cc(Br)ccc24)C3=O)cn1 (stereo not shown) [compound 177]

Row | melting point | IC50 [1] | IC50 [2] | Structure (SMILES)
25 |  | > 10000 nM | 70 nM | Cc1cn(-c2ccc3n(c2=O)CC(C)N(Cc2c[nH]c4cc(Cl)ccc24)C3=O)cn1 (stereo not shown) [compound 179]
26 |  | 6610 nM | 10 nM | Cc1cn(-c2ccc3n(c2=O)C[C@@H](C)N(Cc2c(C)[nH]c4ccc(C(F)(F)F)cc24)C3=O)cn1 [compound 180]
27 |  | 4570 nM | 10 nM | Cc1cn(-c2ccc3n(c2=O)CC(C)N(Cc2c(C)n(C)c4ccc(C(F)(F)F)cc24)C3=O)cn1 (stereo not shown) [compound 181]
28 |  | 2510 nM | 10 nM | CCn1c(C)c(CN2C(=O)c3ccc(-n4cnc(C)c4)c(=O)n3C[C@H]2C)c2cc(C(F)(F)F)ccc21 [compound 182]
29 |  | > 10000 nM | 60 nM | Cc1cn(-c2ccc3n(c2=O)C[C@@H](C)N(Cc2c[nH]c4c(I)cccc24)C3=O)cn1 [compound 197]
30 |  | 9780 nM | 20 nM | Cc1cn(-c2ccc3n(c2=O)CC(C)N(Cc2cn(-c4ccccc4)c4cc(Br)ccc24)C3=O)cn1 (stereo not shown) [compound 199]
31 |  | > 10000 nM | 120 nM | Cc1cn(-c2ccc3n(c2=O)CC(C)N(C2CCc4ccc(C(F)(F)F)cc42)C3=O)cn1 (stereo not shown) [compound 204]
32 |  | > 10000 nM | 240 nM | Cc1cn(-c2ccc3n(c2=O)CC(C)N(C2CCc4ccc(C(F)(F)F)cc42)C3=O)cn1 (stereo not shown) [compound 205]
33 |  | > 10000 nM | 60 nM | COc1ccc2c(c1)c(CN1C(=O)c3ccc(-n4cnc(C)c4)c(=O)n3CC1C)cn2C(C)C (stereo not shown) [compound 222]
34 |  | > 10000 nM | 20 nM | CCn1cc(CN2C(=O)c3ccc(-n4cnc(C)c4)c(=O)n3CC2C)c2ccc(C(F)(F)F)cc21 (stereo not shown) [compound 225]
35 |  | 2190 nM | 10 nM | CCn1cc(CN2C(=O)c3ccc(-n4cnc(C)c4)c(=O)n3C[C@H]2C)c2cc(C(F)(F)F)ccc21 [compound 227]
36 |  | > 10000 nM | 260 nM | Cc1cn(-c2ccc3n(c2=O)C[C@@H](C)N(CCc2cccc(Cl)c2Cl)C3=O)cn1 [compound 231]
37 |  | 4000 nM | 9 nM | Cc1cn(-c2ccc3n(c2=O)C[C@@H](C)N(Cc2cn(C)c4cc(F)c(C(F)(F)F)cc24)C3=O)cn1 [compound 238]
38 |  | 4000 nM | 6 nM | Cc1cn(-c2ccc3n(c2=O)C[C@@H](C)N(Cc2cn(C)c4c(F)cc(C(F)(F)F)cc24)C3=O)cn1 [compound 241]
39 |  | > 10000 nM | 260 nM | Cc1cn(-c2ccc3n(c2=O)C[C@@H](C)N(Cc2cn(C)c4cc(F)ccc24)C3=O)cn1 [compound 242]
40 |  | 7000 nM | 20 nM | Cc1cn(-c2ccc3n(c2=O)C[C@@H](C)N(Cc2cn(C)c4ccc(C5CC5)cc24)C3=O)cn1 [compound 246]
41 |  | 6000 nM | 10 nM | CCn1cc(CN2C(=O)c3ccc(-n4cnc(C)c4)c(=O)n3C[C@H]2C)c2cc(C3CC3)ccc21 [compound 247]
42 |  | > 10000 nM | 50 nM | CCn1cc(CN2C(=O)c3ccc(-n4cnc(C)c4)c(=O)n3C[C@H]2C)c2cc(C)ccc21 [compound 250]
43 |  | 5000 nM | 10 nM | Cc1cn(-c2ccc3n(c2=O)C[C@@H](C)N(Cc2c[nH]c4ccc(OC(F)(F)F)cc24)C3=O)cn1 [compound 252]
44 |  | 5000 nM | 9 nM | Cc1cn(-c2ccc3n(c2=O)C[C@@H](C)N(Cc2cn(C)c4ccc(OC(F)(F)F)cc24)C3=O)cn1 [compound 253]
45 |  | > 10000 nM | 40 nM | Cc1cn(-c2ccc3n(c2=O)C[C@@H](C)N(Cc2c[nH]c4c(C(F)(F)F)cc(F)cc24)C3=O)cn1 [compound 257]
46 |  | 9000 nM | 20 nM | Cc1cn(-c2ccc3n(c2=O)C[C@@H](C)N(Cc2cn(C)c4cc(C(F)(F)F)c(F)cc24)C3=O)cn1 [compound 258]
47 |  | > 10000 nM | 60 nM | Cc1cn(-c2ccc3n(c2=O)C[C@@H](C)N(Cc2cn(C)c4c(C(F)(F)F)cc(F)cc24)C3=O)cn1 [compound 261]
48 |  | > 10000 nM | 20 nM | Cc1ccc2c(c1)c(CN1C(=O)c3ccc(-n4cnc(C)c4)c(=O)n3C[C@H]1C)cn2CC(F)(F)F [compound 262]
